Data reported in publication PMC11642016 (International Journal of Molecular Sciences, 2024).
“And” between values parts separate entries of the source, which are not always exact repeats. Identical values can stand only once. Like-named read-outs stand apart in the source and are kept apart here.

What was measured:
Fadu cells = experiment: CellTiter-Glo luminescent cell viability assay, Fadu
[1] = CellTiter-Glo cell viability assay, HEK293T CLPP−/− (ClpP dependence); conditions: human, HEK293T CLPP−/− cells, HEK293T CLPP-/- Cell viability (% of controll), 72 h, dose–response, individual replicates;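 also: CellTiter-Glo luminescent signal read on a microplate reader once HEK293T CLPP−/− cells had been exposed to compounds for 72 h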
Procedure: (§1) Primary fibroblast cultures were prepared from human skin biopsies and maintained in DMEM supplemented with 10% FBS, 1% penicillin-streptomycin, and 1% MEM Non-Essential Amino Acids Solution (Thermo Fisher Scientific). […] All cell lines were cultured in a humidified atmosphere at 37 °C and 5% CO2, passaged twice a week, and the experiments were performed on cells between passage 5 and 15. The cell lines were routinely screened for the absence of mycoplasma infection (DAPI staining).
(§2) The effects of the synthesized compounds on cell viability were measured using the CellTiter-Glo® luminescent cell viability assay (Promega, Madison, WI, USA), according to the manufacturer’s instructions. Briefly, cells were seeded onto a flat-bottomed, white 96-well plate (BRANDplates, cat. no.: 781965)), with the following densities: PANC-1: 750 cells/well, Fadu: 2000 cells/well, primary fibroblasts: 2000 cells/well, HEK293T WT: 1000 cells/well, HEK293T CLPP^−/−: 2500 cells/well. After seeding, cells were incubated for a further 48 h before treatment. Cells were treated with the compounds for 72 h. Three concentrations (25.0 µM; 8.3 µM; 2.8 µM) were applied during the initial cell viability screening, while for the determination of dose–response curves, 1.5-fold serially diluted compound concentrations were applied (range: 26 µM–0.7 µM). After treatment, the luminescence signal was recorded using a microplate reader (BioTek Synergy 2 Multi-Mode Reader, BioTek, Winooski, VT, USA).
(§3) Data analysis was performed using GraphPad Prism 9.5.0 software (GraphPad Software, San Diego, CA, USA). […] The dose–response curves were generated by four-parameter nonlinear regression, and the IC50 values were determined as the means ± SEM of the best-fit values of 3 independent measurements. The R^2 values were consistently above 0.93, indicating a strong fit of the model to the experimental data (Supplementary S.89). […] Dunnett’s post hoc test was applied to adjust for multiple comparisons, minimizing the likelihood of false positive results. Assumptions for ANOVA, including normality (assessed via QQ plots) and homogeneity of variance (tested using the Brown–Forsythe test), were verified. The following significance levels were applied: * p < 0.05, ** p < 0.01, *** p < 0.001, **** p < 0.0001. […] The tumor selectivity of the compounds was quantitatively characterized by the selectivity index (SI). This parameter was calculated as the ratio of the average best-fit IC50 value for primary fibroblasts and the best-fit IC50 value for the corresponding tumor cells (PANC-1 or Fadu).

HEK293T CLPP^−/− cells = experiment: as above; conditions: 72 h; for HEK293T CLPP-/- Cell viability (% of controll): individual replicates
Procedure: as §1, §2, §3

[2] = test system: non-tumorous primary fibroblast cells; experiment: CellTiter-Glo luminescent cell viability assay, primary fibroblasts; conditions: for Primer fibroblast Cell viability (% of controll): dose–response, individual replicates; for IC50: Homo sapiens, Fibroblast
Procedure: as §1, §2, §3

[3] = as above; conditions: human, primary skin fibroblasts (non-tumorous), Primer fibroblast Cell viability (% of controll), 72 h, dose–response, individual replicates
Procedure: as §1, §2, §3

## CNCC#Cc1cccc(CN2C(=O)C3=C(CCN(Cc4ccc(-n5cc(-c6ccccc6)nn5)cc4)C3)N3CCN=C23)c1 [38b]
Fadu cells; 7.7 μM, 72 h, dose–response, individual replicates
  Fadu Cell viability (% of controll): 0 % of controll
Fadu cells; 17.3 μM, 72 h, dose–response, individual replicates
  Fadu Cell viability (% of controll): 0 % of controll
Fadu cells; 26 μM, 72 h, dose–response, individual replicates
  Fadu Cell viability (% of controll): 0 % of controll
Fadu cells; Homo sapiens, FaDu, 72 h, read-out: Cell Viability (% of Control) 2.8 µM, Fadu, 2.8 µM, 72 h, second-set screening, mean ± SD, n = 2
  viability at 2.8 µM: 91 ± 17%
Fadu cells; Homo sapiens, FaDu, 72 h, read-out: Cell Viability (% of Control) 8.3 µM, Fadu, 8.3 µM, 72 h, second-set screening, mean ± SD, n = 2
  viability at 8.3 µM: 0%
Fadu cells; Homo sapiens, FaDu, 72 h, read-out: Cell Viability (% of Control) 25 µM, Fadu, 25 µM, 72 h, second-set screening, mean ± SD, n = 2
  viability at 25 µM: 0%
Fadu cells; Homo sapiens, FaDu, 72 h, read-out: Fadu Cell viability (% of controll), 0.7 μM, 72 h, dose–response, individual replicates
  viability at 0.7 µM: 103%
Fadu cells; Homo sapiens, FaDu, 72 h, read-out: Fadu Cell viability (% of controll), 1 μM, 72 h, dose–response, individual replicates
  viability at 1 µM: 113%
Fadu cells; Homo sapiens, FaDu, 72 h, read-out: Fadu Cell viability (% of controll), 1.5 μM, 72 h, dose–response, individual replicates
  viability at 1.5 µM: 104%
Fadu cells; Homo sapiens, FaDu, 72 h, read-out: Fadu Cell viability (% of controll), 2.3 μM, 72 h, dose–response, individual replicates
  viability at 2.3 µM: 104%
Fadu cells; Homo sapiens, FaDu, 72 h, read-out: Fadu Cell viability (% of controll), 7.7 μM, 72 h, dose–response, individual replicates
  viability at 7.7 µM: 0%
Fadu cells; Homo sapiens, FaDu, 72 h, read-out: Fadu Cell viability (% of controll), 17.3 μM, 72 h, dose–response, individual replicates
  viability at 17.3 µM: 0%
Fadu cells; Homo sapiens, FaDu, 72 h, read-out: Fadu Cell viability (% of controll), 26 μM, 72 h, dose–response, individual replicates
  viability at 26 µM: 0%
Fadu cells; Homo sapiens, FaDu, 72 h, read-out: IC50 Value ± SEM Fadu, 72 h treatment, best-fit values, n = 3
  IC50: 3.3 ± 0.07 µM
Fadu cells; ratio of mean best-fit IC50 for primary fibroblasts and best-fit IC50 for Fadu
  Selectivity Index (SI) Fibroblast/Fadu: 1.3
[1]; 0.4 μM
  viability at 72 h, 0.4 µM: 113%
[1]; 0.6 μM
  viability at 72 h, 0.6 µM: 117%
[1]; 1.0 μM
  viability at 72 h, 1 µM: 118%
[1]; 1.6 μM
  viability at 72 h, 1.6 µM: 100%
[1]; 6.4 μM
  viability at 72 h, 6.4 µM: 0%
[1]; 16.25 μM
  viability at 72 h, 16.25 µM: 0%
[1]; 26 μM
  viability at 72 h, 26 µM: 0%
HEK293T CLPP^−/− cells; 0.4 μM, dose–response, listed as CZT457, 0.4 µM
  HEK293T CLPP-/- Cell viability (% of controll): 116 % of controll and 114 % of controll and 119 % of controll
HEK293T CLPP^−/− cells; 0.6 μM, dose–response, listed as CZT457, 0.6 µM
  HEK293T CLPP-/- Cell viability (% of controll): 112 % of controll (2×) and 110 % of controll
HEK293T CLPP^−/− cells; 1.0 μM, dose–response, listed as CZT457, 1 µM
  HEK293T CLPP-/- Cell viability (% of controll): 112 % of controll and 111 % of controll and 115 % of controll
HEK293T CLPP^−/− cells; 1.6 μM, dose–response, listed as CZT457, 1.6 µM
  HEK293T CLPP-/- Cell viability (% of controll): 107 % of controll and 101 % of controll and 103 % of controll
HEK293T CLPP^−/− cells; 2.5 μM, dose–response, listed as CZT457, 2.5 µM
  HEK293T CLPP-/- Cell viability (% of controll): 25 % of controll and 33 % of controll and 32 % of controll and 13 % of controll
HEK293T CLPP^−/− cells; 4.0 μM, dose–response, listed as CZT457, 4 µM
  HEK293T CLPP-/- Cell viability (% of controll): 1 % of controll and 0 % of controll
HEK293T CLPP^−/− cells; 6.4 μM, dose–response
  HEK293T CLPP-/- Cell viability (% of controll): 0 % of controll
HEK293T CLPP^−/− cells; 16.25 μM, dose–response
  HEK293T CLPP-/- Cell viability (% of controll): 0 % of controll
HEK293T CLPP^−/− cells; 26 μM, dose–response
  HEK293T CLPP-/- Cell viability (% of controll): 0 % of controll
HEK293T CLPP^−/− cells; Homo sapiens, HEK-293T, read-out: IC50 (µM) HEK293T CLPP^−/−
  IC50: 2.1 ± 0.03 µM
HEK293T CLPP^−/− cells; dose–response, compared with HEK293T WT
  effect on the viability of HEK293T CLPP^−/− cells: maintained
[2]; 0.7 μM, 72 h
  Primer fibroblast Cell viability (% of controll): 107 % of controll and 109 % of controll
[2]; 1 μM, 72 h
  Primer fibroblast Cell viability (% of controll): 117 % of controll and 101 % of controll
[2]; 1.5 μM, 72 h
  Primer fibroblast Cell viability (% of controll): 118 % of controll
[2]; 2.3 μM, 72 h
  Primer fibroblast Cell viability (% of controll): 107 % of controll
[2]; 3.4 μM, 72 h
  Primer fibroblast Cell viability (% of controll): 110 % of controll and 101 % of controll
[2]; 5.1 μM, 72 h
  Primer fibroblast Cell viability (% of controll): 5 % of controll and 8 % of controll
[2]; 7.7 μM, 72 h
  Primer fibroblast Cell viability (% of controll): 0 % of controll
[2]; 17.3 μM, 72 h
  Primer fibroblast Cell viability (% of controll): 0 % of controll
[2]; 26 μM, 72 h
  Primer fibroblast Cell viability (% of controll): 0 % of controll
[2]; 72 h, read-out: IC50 Value ± SEM Primary Fibroblast, 72 h treatment, best-fit values, n = 3
  IC50: 4.4 ± 0.23 µM
[2]; read-out: Primary fibroblast IC50 values, Mean, mean of independently fitted replicate IC50 values (Supplement S.6), ONC201 value mathematically estimated from inflection point
  IC50: 4.45 µM
[3]; 0.7 μM
  viability at 72 h, 0.7 µM: 103%
[3]; 1 μM
  viability at 72 h, 1 µM: 112%
[3]; 1.5 μM
  viability at 72 h, 1.5 µM: 106%
[3]; 2.3 μM
  viability at 72 h, 2.3 µM: 116%
[3]; 3.4 μM
  viability at 72 h, 3.4 µM: 112%
[3]; 5.1 μM
  viability at 72 h, 5.1 µM: 6%
[3]; 7.7 μM
  viability at 72 h, 7.7 µM: 0%
[3]; 17.3 μM
  viability at 72 h, 17.3 µM: 0%
[3]; 26 μM
  viability at 72 h, 26 µM: 0%
